Test results reported in US12186400B2, “Micromolecular compound specifically degrading tau protein, and application thereof” (Shanghai Qiangrui Biotech Co., Ltd., priority 2018, dated 2025).

Legend:
[1] = target: T1, tau protein (Homo sapiens, UniProt P10636); assay: Immunoblot of total tau protein (tau5 antibody) in HEK293 tau cells after 24 h treatment; type: cell-based; details: HEK293 tau cells stably expressing wild type full length tau, effect at 1 μM, 10 μM and 20 μM (tested 0, 0.01, 0.1, 1, 10, 20 μM)
T1 construct: HEK293 tau cells (stably expressing wild type full length tau protein); expressed in transfected cells
Procedure: HEK293 tau cells (stably expressing wild type full length tau protein) is subjected to cell culture and pharmaceutical treatment, and after the HEK293 tau cells were cultured in DMEM medium for 24 hours, the micromolecular compounds prepared in the above example with various concentrations (0 μM, 0.01 μM, 0.1 μM, 1 μM, 10 μM, 20 μM) were added, the cells were further cultured for 24 hours. The cells were lysed with RIPA liquid and the cell extraction solution was collected, the proteins in the cell extraction solution were separated with 10% polyacrylamide gel electrophoresis (PAGE), and subsequently immunoblotted with anti-total tau protein antibody (tau5), and the tau protein content was quantitatively analyzed. The detailed operation procedures for preparation of samples, measurement of protein content in the samples, and the immunoblotting process were performed with reference to the following content.
(1) The growth condition and density of cells in the cell culture plates were observed under a microscope;
(2) PBS and cell culture plate were precooled on ice, a mixed liquor consisting of 1× buffer solution+PMSF (1:100)+protease inhibitor cocktail (1:1000) was prepared; 80 μl of the mixed liquor was added into each pore of the 6-well plate, and 150 μl of the mixed liquor was added into a culture dish with a diameter of 6 cm; […]

[2] = target: T1, tau protein; assay: Fluorescence photograph of total tau protein content in HEK293 tau cells; type: cell-based; details: different concentrations

T1 sequence (P10636 1-441 isoform P10636-8): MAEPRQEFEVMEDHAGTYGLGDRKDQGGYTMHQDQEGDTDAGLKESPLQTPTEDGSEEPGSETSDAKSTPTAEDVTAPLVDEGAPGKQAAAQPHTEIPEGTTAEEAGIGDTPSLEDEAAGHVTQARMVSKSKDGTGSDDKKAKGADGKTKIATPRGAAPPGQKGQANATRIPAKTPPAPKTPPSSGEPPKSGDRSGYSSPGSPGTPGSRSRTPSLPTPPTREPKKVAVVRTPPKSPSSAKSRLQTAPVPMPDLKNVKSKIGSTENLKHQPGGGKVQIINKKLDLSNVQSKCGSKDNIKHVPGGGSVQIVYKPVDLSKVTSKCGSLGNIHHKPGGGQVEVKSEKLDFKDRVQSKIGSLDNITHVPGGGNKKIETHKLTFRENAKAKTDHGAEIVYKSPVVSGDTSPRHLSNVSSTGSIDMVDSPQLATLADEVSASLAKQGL

CC(=O)N1CCCN(c2nc(NCCc3cccs3)nc(N(C)CC(=O)NCCOCCOCCOCC(=O)N[C@H](C(=O)N3C[C@H](O)C[C@H]3C(=O)NCc3ccc(-c4scnc4C)cc3)C(C)(C)C)n2)CC1 [Compound 4]
content of tau protein in cells (immunoblot, quantitative analysis, FIG. 2 and FIG. 3) [1]: dose-dependently reduce the content of tau protein in cells | total tau protein content in the HEK293 tau cells (fluorescence photograph, FIG. 4) [2]: reducing total tau protein content in the HEK293 tau cells
